According to patent US10131652B2, “Pyrimidinyloxy benzene derivatives as herbicides” (E. I. DU PONT DE NEMOURS AND COMPANY, priority 2014, dated 2018):

Experiments:
Format in all cases: in vivo
[1] = test system: Italian ryegrass (Lolium multiflorum); test: Test B pre-/postemergence plant response
Source text: (§1) Seeds of plant species selected from bamyardgrass (Echinochloa crus-galli), kochia (Kochia scoparia), ragweed (common ragweed, Ambrosia elatior), Italian ryegrass (Lolium multiflorum), large (Lg) crabgrass (Digitaria sanguinalis), giant foxtail (Setaria faberii), momingglory (Ipomoea spp.), pigweed (Amaranthus retroflexus), velvetleaf (Abutilon theophrasti), wheat (Triticum aestivum), and corn (Zea mays) were planted into a blend of loam soil and sand and treated preemergence with a directed soil spray using test chemicals formulated in a non-phytotoxic solvent mixture which included a surfactant. At the same time, plants selected from these crop and weed species and also blackgrass (Alopecurus myosuroides), and galium (catchweed bedstraw, Galium aparine) were planted in pots containing the same blend of loam soil and sand and treated with postemergence applications of test chemicals formulated in the same manner. Plants ranged in height from 2 to 10 cm and were in the one- to two-leaf stage for the postemergence treatment. Treated plants and untreated controls were maintained in a greenhouse for approximately 10 days, after which time all treated plants were compared to untreated controls and visually evaluated for injury. Plant response ratings, summarized in Table B, are based on a 0 to 100 scale where 0 is no effect and 100 is complete control. A dash (-) response means no test result.

[2] = test system: barnyardgrass (Echinochloa crus-galli); test: Test B pre-/postemergence plant response
Source text: as §1

corn (Zea mays) = test: Test B pre-/postemergence plant response
Source text: as §1

[3] = test system: giant foxtail (Setaria faberii); test: Test B pre-/postemergence plant response
Source text: as §1

kochia (Kochia scoparia) = test: Test B pre-/postemergence plant response
Source text: as §1

[4] = test system: pigweed (Amaranthus retroflexus); test: Test B pre-/postemergence plant response
Source text: as §1

[5] = test system: ragweed (common ragweed, Ambrosia elatior); test: Test B pre-/postemergence plant response
Source text: as §1

[6] = test system: wheat (Triticum aestivum); test: Test B pre-/postemergence plant response
Source text: as §1

[7] = test system: blackgrass (Alopecurus myosuroides); test: Test B postemergence plant response
Method in brief: (§2)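 Visual injury ratings, 0 = no effect to 100 = complete control, versus untreated controls approximately 10 days after postemergence spraying in greenhouse. Plants were at one- to two-leaf stage, 2 to 10 cm tall, in loam soil/sand blend; a dash denotes no result.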

[8] = test system: galium (catchweed bedstraw, Galium aparine); test: Test B postemergence plant response
Method in brief: as §2

[9] = test system: barnyardgrass (Echinochloa crus-galli); test: Test C flooded paddy test plant response; settings: Flood, 250 g ai/ha; scale of 0 to 100 where 0 is no effect and 100 is complete control; 13 to 15 days
Method in brief: (§3)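 Two-leaf stage → flood to 3 cm → compound into water → hold depth, greenhouse 13–15 d → visual score vs controls (0 none, 100 complete control).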

[10] = test system: ducksalad (Heteranthera limosa); test: Test C flooded paddy test plant response; settings: Flood, 250 g ai/ha; scale of 0 to 100 where 0 is no effect and 100 is complete control; 13 to 15 days
Method in brief: as §3

rice (Oryza sativa) = test: Test C flooded paddy test plant response; settings: Flood, 250 g ai/ha; scale of 0 to 100 where 0 is no effect and 100 is complete control; 13 to 15 days
Method in brief: as §3

[11] = test system: small-flower umbrella sedge (Cyperus difformis); test: Test C flooded paddy test plant response; settings: Flood, 250 g ai/ha; scale of 0 to 100 where 0 is no effect and 100 is complete control; 13 to 15 days
Method in brief: as §3

[12] = 31 g ai/ha, Preemergence, 0 to 100 scale where 0 is no effect and 100 is complete control
[13] = 125 g ai/ha, postemergence, 0 to 100 scale, 0 no effect, 100 complete control
[14] = Postemergence, 31 g ai/ha, 0 to 100 scale (0 no effect, 100 complete control)
[15] = Preemergence, 125 g ai/ha, 0 to 100 scale (0 no effect, 100 complete control)
[16] = Postemergence, 500 g ai/ha, 0 to 100 scale (0 no effect, 100 complete control)
[17] = Preemergence, 125 g ai/ha, 0 to 100 scale where 0 is no effect and 100 is complete control
[18] = Preemergence, 500 g ai/ha, 0 to 100 scale where 0 is no effect and 100 is complete control

C=C(C)c1cc(-c2ccccc2Oc2ncc(Br)cn2)on1 [Compound 197]
Plant response rating, Ryegrass, Italian [1, 12]: 0 | Plant response rating, Ryegrass, Italian [1, 13]: 0 | Plant response rating, Ryegrass, Italian [1, 14]: 0 | Ryegrass, Italian plant response rating [1, 15]: 0 | Plant response rating, Barnyardgrass [2, 12]: 0 | Plant response rating, Barnyardgrass [2, 13]: 0 | Plant response rating, Barnyardgrass [2, 14]: 0 | Barnyardgrass plant response rating [2, 15]: 0 | Plant response rating, Corn (corn (Zea mays); [13]): 0 | Plant response rating, Corn (corn (Zea mays); [14]): 0 | Plant response rating, Foxtail, Giant [3, 12]: 0 | Plant response rating, Foxtail, Giant [3, 13]: 0 | Plant response rating, Foxtail, Giant [3, 14]: 0 | Foxtail, Giant plant response rating [3, 15]: 0 | Plant response rating, Kochia (kochia (Kochia scoparia); [12]): 0 | Plant response rating, Kochia (kochia (Kochia scoparia); [13]): 0 | Plant response rating, Kochia (kochia (Kochia scoparia); [14]): 0 | Kochia plant response rating (kochia (Kochia scoparia); [15]): 0 | Plant response rating, Pigweed [4, 12]: 0 | Plant response rating, Pigweed [4, 13]: 10 | Plant response rating, Pigweed [4, 14]: 10 | Pigweed plant response rating [4, 15]: 0 | Plant response rating, Ragweed [5, 12]: 0 | Plant response rating, Ragweed [5, 13]: 0 | Plant response rating, Ragweed [5, 14]: 0 | Ragweed plant response rating [5, 15]: 0 | Plant response rating, Wheat [6, 13]: 0 | Plant response rating, Wheat [6, 14]: 0 | Plant response rating, Blackgrass [7, 13]: 0 | Plant response rating, Blackgrass [7, 14]: 0 | Plant response rating, Galium [8, 13]: 50 | Plant response rating, Galium [8, 14]: 10 | Barnyardgrass plant response rating [9]: 20 | Ducksalad plant response rating [10]: 0 | Rice plant response rating (rice (Oryza sativa)): 0 | Sedge, Umbrella plant response rating [11]: 0

CC(C)(C)c1cc(-c2ccccc2Oc2ncc(Cl)cn2)no1 [Compound 59]
Plant response rating, Ryegrass, Italian [1, 13]: 0 | Plant response rating, Ryegrass, Italian [1, 16]: 0 | Plant response rating, Ryegrass, Italian [1, 17]: 0 | Plant response rating, Ryegrass, Italian [1, 18]: 0 | Plant response rating, Barnyardgrass [2, 13]: 10 | Plant response rating, Barnyardgrass [2, 16]: 10 | Plant response rating, Barnyardgrass [2, 17]: 0 | Plant response rating, Barnyardgrass [2, 18]: 10 | Plant response rating, Corn (corn (Zea mays); [13]): 0 | Plant response rating, Corn (corn (Zea mays); [16]): 10 | Plant response rating, Foxtail, Giant [3, 13]: 10 | Plant response rating, Foxtail, Giant [3, 16]: 50 | Plant response rating, Foxtail, Giant [3, 17]: 10 | Plant response rating, Foxtail, Giant [3, 18]: 60 | Plant response rating, Kochia (kochia (Kochia scoparia); [13]): 0 | Plant response rating, Kochia (kochia (Kochia scoparia); [16]): 20 | Plant response rating, Kochia (kochia (Kochia scoparia); [17]): 0 | Plant response rating, Kochia (kochia (Kochia scoparia); [18]): 0 | Plant response rating, Pigweed [4, 13]: 40 | Plant response rating, Pigweed [4, 16]: 50 | Plant response rating, Pigweed [4, 17]: 0 | Plant response rating, Pigweed [4, 18]: 30 | Plant response rating, Ragweed [5, 13]: 0 | Plant response rating, Ragweed [5, 16]: 0 | Plant response rating, Ragweed [5, 17]: 0 | Plant response rating, Ragweed [5, 18]: 0 | Plant response rating, Wheat [6, 13]: 0 | Plant response rating, Wheat [6, 16]: 10 | Plant response rating, Blackgrass [7, 13]: 0 | Plant response rating, Blackgrass [7, 16]: 40 | Plant response rating, Galium [8, 13]: 40 | Plant response rating, Galium [8, 16]: 90 | Barnyardgrass plant response rating [9]: 0 | Ducksalad plant response rating [10]: 0 | Rice plant response rating (rice (Oryza sativa)): 0 | Sedge, Umbrella plant response rating [11]: 0
